Assays:
Coagulation factor XII [1] = target: T1, Coagulation factor XII (Homo sapiens, UniProt P00748); assay: Inhibition of human factor 12a using Boc-Gly-Gln-Arg-AMC substrate incubated for 1 hr by fluorescence assay
T1 sequence (P00748 whole entry): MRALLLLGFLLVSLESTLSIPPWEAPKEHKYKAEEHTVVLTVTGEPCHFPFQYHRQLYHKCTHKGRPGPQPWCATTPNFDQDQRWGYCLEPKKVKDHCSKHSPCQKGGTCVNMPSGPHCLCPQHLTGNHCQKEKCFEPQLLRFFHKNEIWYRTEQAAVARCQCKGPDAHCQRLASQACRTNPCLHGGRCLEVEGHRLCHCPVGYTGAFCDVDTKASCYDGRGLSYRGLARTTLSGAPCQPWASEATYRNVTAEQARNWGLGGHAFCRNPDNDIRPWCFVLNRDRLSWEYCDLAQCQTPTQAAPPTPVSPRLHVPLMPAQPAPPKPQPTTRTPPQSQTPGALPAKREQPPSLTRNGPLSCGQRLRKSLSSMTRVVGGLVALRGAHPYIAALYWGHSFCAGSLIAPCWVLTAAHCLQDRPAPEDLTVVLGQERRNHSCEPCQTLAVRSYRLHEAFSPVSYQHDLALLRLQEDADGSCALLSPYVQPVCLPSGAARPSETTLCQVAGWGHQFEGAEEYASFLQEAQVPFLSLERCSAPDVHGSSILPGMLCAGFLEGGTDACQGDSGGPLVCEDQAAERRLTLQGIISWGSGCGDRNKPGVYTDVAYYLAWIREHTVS

Coagulation factor XII [2] = target: T1, Coagulation factor XII; assay: Inhibition of human factor 12a using Boc-Gly-Gln-Arg-AMC substrate incubated for 1 hr in presence of 0.02% Tween20 surfactant by fluorescence assay
Coagulation factor XII [3] = target: T1, Coagulation factor XII; assay: Inhibition of human factor 12a using Boc-Gly-Gln-Arg-AMC substrate incubated for 1 hr in presence of 0% Tween20 surfactant by fluorescence assay
Coagulation factor XII [4] = target: T1, Coagulation factor XII; assay: Inhibition of human factor 12a using Boc-Gly-Gln-Arg-AMC substrate incubated for 1 hr in presence of 0.01% Tween20 surfactant by fluorescence assay

Structure (SMILES) | IC50 (Coagulation factor XII [1]) [µM] | also measured
COc1ccccc1C(=O)n1nnc2ccccc21 | 7.21 | –
COc1cc(OC)cc(C(=O)n2nnc3ccccc32)c1 | 25.4 | –
COc1ccccc1C(=O)n1nc(-c2cccnc2)nc1N | 0.68 | IC50 (Coagulation factor XII [2]): 2.43 µM; IC50 (Coagulation factor XII [3]): 1.85 µM; IC50 (Coagulation factor XII [4]): 2.63 µM
COc1ccc(/C=C(\C#N)c2nc3ccccc3[nH]2)cc1OC | > 50 | –
COC(=O)c1ccc(/C=C(\C#N)c2nc3ccc(C)cc3[nH]2)cc1 | > 50 | –
COc1ccc(/C=C(\C#N)c2nc3ccc(C)cc3[nH]2)cc1 | > 50 | –
O=C(c1ccc(Cl)cc1)n1nnc2ccccc21 | 31.7 | –
O=C(c1ccc(Br)cc1)n1nnc2ccccc21 | 0.6 | –
O=C(c1ccco1)n1nnc2ccccc21 | 34.1 | –

Continued, in another order:

IC50 (Coagulation factor XII [1]) [µM] | Structure (SMILES) | also measured
> 50 | Cc1ccc(/C=C(\C#N)c2nc3ccccc3[nH]2)cc1 | –
> 50 | N#C/C(=C\c1ccccc1)c1nc2ccccc2[nH]1 | –
> 50 | Cc1ccc2nc(/C(C#N)=C/c3ccccc3)[nH]c2c1 | –
> 50 | COc1cccc(/C=C(\C#N)c2nc3ccccc3[nH]2)c1 | –

Source: ChEMBL document CHEMBL4190342, “Identifying novel factor XIIa inhibitors with PCA-GA-SVM developed vHTS models” (Eur J Med Chem, 2017)
